Results: patent US9441012B2, “Fluorinated epoxyketone-based compounds and uses thereof as proteasome inhibitors” (FLUORINOV PHARMA INC., priority 2012, dated 2016)

Experiments:
CCRF-CEM = experiment: NCI 60 human tumor cell line screen (SRB); assay type: cell-based; details: CCRF-CEM (Leukemia); 48 h
EKVX = experiment: NCI 60 human tumor cell line screen (SRB); assay type: cell-based; details: EKVX (Non-Small Cell Lung Cancer); 48 h
MM.1S tumor cells = experiment: Myeloma MM.1S mouse xenograft model; assay type: in vivo
Description: The mice were irradiated (200 rads) using a Co60 irradiator source. After 24 his, each mouse was inoculated subcutaneously with 5×10^6 MM.1S tumor cells in 0.1 ml PBS for tumor development. Treatments were started when the tumor volume reached 100 mm^3. Each treatment group consisted of 10 mice. The compound of Example 1 was administrated to the tumor-bearing mice according to a specific predetermined regimen.

[1] = target: T1, Trypsin-like (T-L) proteasome activity (Mus musculus, UniProt P70195); experiment: Proteasome subunit activity in murine red blood cells after oral administration; assay type: in vivo, NOD/SCID mice; details: oral gavage, Example 1 50 mg/kg, Example 26 60 mg/kg
T1 construct: RBCs were lysed with assay lysis buffer and incubated on ice for 30 minutes; from tissue; host or cells: red blood cells of NOD/SCID mice after oral dosing
T1 sequence (P70195 44-277): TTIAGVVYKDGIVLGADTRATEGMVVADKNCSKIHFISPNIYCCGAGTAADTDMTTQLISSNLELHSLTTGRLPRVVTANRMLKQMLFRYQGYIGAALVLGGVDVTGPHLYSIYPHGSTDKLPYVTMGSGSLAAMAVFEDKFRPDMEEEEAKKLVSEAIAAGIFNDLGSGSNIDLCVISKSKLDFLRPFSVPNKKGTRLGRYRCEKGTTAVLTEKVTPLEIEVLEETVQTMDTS
Description: (§1) Cells were harvested by centrifugation at 1,200 rpm at room temperature. Cell pellets were washed with PBS and lysed with assay lysis buffer (50 mM HEPES (N-2-hydroxyethylpiperazine-N′-2-ethanesulfonic acid), pH 7.5; 150 mM NaCl; 1% Triton X-100; 2 mM ATP). Cell lysates were incubated on ice for 30 minutes, mixed by vortex every 5 minutes, and then centrifuged at 12,000 g for 10 minutes. The supernatant was transferred to a 96-well plate. For each assay, 10 μg of total protein were incubated for 1 hour at 37° C. with increasing concentrations (1 nM to 10 μM) of test compound diluted in assay buffer (50 mM Tris-HCl (tris(hydroxymethyl)aminomethane-HCl), pH 7.5; 150 mM NaCl). DMSO alone was used as a control in every assay plate. After incubation, a specific fluorogenic proteasome substrate was added to each assay reaction at a final concentration of 40 μM in a total volume of 100 μL. N-Succinyl-Leu-Leu-Val-Tyr-7-amino-4-methylcoumarin (Suc-Leu-Leu-Val-Tyr-AMC) was used for measuring chymotrypsin-like (CT-L) activity, t-butoxycarbonyl-Leu-Arg-Arg-7-amino-4-methylcoumarin (Boc-Leu-Arg-Arg-AMC) for trypsin-like (T-L) activity, and benzyloxycarbonyl-L-leucyl-L-leucyl-L-glutamyl-7-amino-4-methylcoumarin (Z-Leu-Leu-Glu-AMC) for caspase-like (C-L) activity. The excitation wavelength was set at 360 nm and the fluorescence emission wavelength of AMC was detected at 460 nm. The fluorescence of free AMC released during the enzymatic reaction was measured with a SpectraMax M5 fluorescent spectrophotometric plate reader (Molecular Devices, Sunnyvale, Calif.). AMC release rate was measured at 37° C. in a kinetic mode, recording every 5 minutes for 30 minutes. Experiments were performed in triplicate and repeated at least twice.
(§2) All mouse experiments were performed in accordance with approval from the Ontario Cancer Institute institutional animal review board. Five- to six-week-old male non-obese diabetic/severe combined immunodeficient (NOD/SCID) mice were grouped randomly (n=3 mice per group). Mice were administered vehicle (5% DMSO, 20% Cremophor) or compounds of Formula I at different doses either intravenously or by oral gavage, and venous blood samples (20-50 μL) were collected from each mouse over 24 hours. Blood samples were mixed with heparin (APP Pharmaceuticals; Schaumburg, Ill.) in 0.5 mL tubes in accordance with the manufacturer's instructions. After centrifugal separation at 3,000 g for 10 minutes, red blood cells (RBCs) in the bottom layer were transferred into a new tube and stored at −70° C. until use. RBCs were lysed with assay lysis buffer and incubated on ice for 30 minutes, mixing by vortex every 5 minutes, and then centrifuged at 12,000 g for 10 minutes. The supernatant was transferred to a 96-well plate and proteasome activity was measured as described in above for tumor cell lysates.
(§3) Proteasome subunit activity (Chymotrypsin-like, Trypsin-like, Caspase-like, CT-L, T-L, C-L, respectively) were monitored over the course of 24 hrs following […] administration of representative compounds of Formula I. NOD/SCID mice were treated with the compound from Example 1 (50 mg/kg by oral gavage) and the compound from Example 26 (60 mg/kg by oral gavage) or vehicle control for up to 24 hours, as described above.
(§4) Table 10 summarizes the data for the representative compounds of Formula (I); the compounds of Examples 1 and 26.

[2] = target: T2, Caspase-like (C-L) proteasome activity (Mus musculus, UniProt Q60692); experiment: as above; assay type: in vivo, NOD/SCID mice; details: oral gavage, Example 1 50 mg/kg, Example 26 60 mg/kg
T2 construct: RBCs were lysed with assay lysis buffer and incubated on ice for 30 minutes; from tissue; host or cells: red blood cells of NOD/SCID mice after oral dosing
T2 sequence (Q60692 1-238): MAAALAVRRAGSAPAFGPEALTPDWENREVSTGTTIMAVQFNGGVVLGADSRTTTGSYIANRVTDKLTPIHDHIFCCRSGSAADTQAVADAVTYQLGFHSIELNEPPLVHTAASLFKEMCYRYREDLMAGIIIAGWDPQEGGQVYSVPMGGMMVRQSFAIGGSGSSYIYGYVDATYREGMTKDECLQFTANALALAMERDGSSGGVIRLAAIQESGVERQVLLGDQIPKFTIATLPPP
Description: as §1, §2, §3, §4

[3] = target: T3, chymotrypsin-like (CT-L) proteasome activity (Mus musculus, UniProt O55234); experiment: as above; assay type: in vivo, NOD/SCID mice; details: oral gavage, Example 1 50 mg/kg, Example 26 60 mg/kg
T3 construct: RBCs were lysed with assay lysis buffer and incubated on ice for 30 minutes; from tissue; host or cells: red blood cells of NOD/SCID mice after oral dosing
T3 sequence (O55234 60-264): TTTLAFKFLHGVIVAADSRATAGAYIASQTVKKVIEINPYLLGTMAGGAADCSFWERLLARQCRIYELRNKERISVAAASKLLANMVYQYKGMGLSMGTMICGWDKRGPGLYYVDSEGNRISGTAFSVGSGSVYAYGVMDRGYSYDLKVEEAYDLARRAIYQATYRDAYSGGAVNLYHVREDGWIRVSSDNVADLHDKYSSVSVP
Description: as §1, §2, §3, §4

[4] = 100 mg/kg p.o, days 1, 3, 5/wk×4 wks

Row | Structure (SMILES) | Log10GI50 (CCRF-CEM) | Log10LC50 (CCRF-CEM) | Log10TGI50 (CCRF-CEM) | Log10GI50 (EKVX) | Log10LC50 (EKVX) | Log10TGI50 (EKVX) | antitumor activity vs. control (MM.1S tumor cells; 50 mg/kg p.o, qd×28 days) | gross adverse effects including reductions in body weight or alterations in behaviour (MM.1S tumor cells; 50 mg/kg p.o, qd×28 days) | antitumor activity vs. control (MM.1S tumor cells; [4]) | gross adverse effects including reductions in body weight or alterations in behaviour (MM.1S tumor cells; [4]) | Trypsin-like (T-L) mean residual activity relative to vehicle treated controls ([1]; 30 min) [%] | Trypsin-like (T-L) mean residual activity relative to vehicle treated controls ([1]; 24 hrs) [%] | Trypsin-like (T-L) mean residual activity relative to vehicle treated controls ([1]; time 0) [%] | Caspase-like (C-L) mean residual activity relative to vehicle treated controls ([2]; 30 min) [%] | Caspase-like (C-L) mean residual activity relative to vehicle treated controls ([2]; 24 hrs) [%] | Caspase-like (C-L) mean residual activity relative to vehicle treated controls ([2]; time 0) [%] | chymotrypsin-like (CT-L) mean residual activity relative to vehicle treated controls ([3]; 30 min) [%] | chymotrypsin-like (CT-L) mean residual activity relative to vehicle treated controls ([3]; 24 hours) [%] | chymotrypsin-like (CT-L) mean residual activity relative to vehicle treated controls ([3]; time 0) [%]
1 | Cc1ncc(C(=O)N[C@@H](COC(F)F)C(=O)N[C@@H](COC(F)F)C(=O)N[C@@H](Cc2ccccc2)C(=O)[C@@]2(C)CO2)s1 [Example 1, 2-methyl-thiazole-5-carboxylic acid ((S)-1-{(S)-1-[(S)-1-benzyl-2-((R)-2-methyloxiranyl)-2-oxo-ethylcarbamoyl]-2-difluoromethoxyethylcarbamoyl}-2-difluoromethoxyethyl)-amide] | −7.26 | >−4.00 | >−4.00 | −6.22 | >−4.00 | >−4.00 | statically significant antitumor activity | no observed gross adverse effects | statically significant antitumor activity | no observed gross adverse effects | 100 | 100 | 100 | 100 | 100 | 100 | 27 | 22 | 100
2 | C[C@]1(C(=O)[C@H](Cc2ccccc2)NC(=O)[C@H](COC(F)F)NC(=O)[C@H](COC(F)F)NC(=O)CN2CCOCC2)CO1 [Example 26, (S)-N-{(S)-1-[(S)-1-Benzyl-2-((R)-2-methyl-oxiranyl)-2-oxo-ethylcarbamoyl]-2-difluoromethoxyethyl}-3-difluoromethoxy-2-(2-morpholin-4-yl-acetylamino)-propio-namide] |  |  |  |  |  |  |  |  |  |  | 100 | 100 | 100 | 100 | 100 | 100 | 33 | 27 | 100
3 | C[C@]1(C(=O)[C@H](Cc2ccccc2)NC(=O)[C@H](Cc2ccccc2)NC(=O)[C@H](COC(F)F)NC(=O)CN2CCOCC2)CO1 [Example 29] | −7.62 | >−4.00 | >−4.00 |  |  |  |  |  |  |  |  |  |  |  |  |  |  |  | 
